How the values were obtained:
[1] = xn = mol fraction of the nth substance listed; settings: 101.3 kPa, Liquid
[2] = refractive index (Na D-line) (dimensionless); xn = mol fraction of the nth substance listed; settings: 101.3 kPa, Liquid

CCOC=O [ethyl methanoate] + CCc1ccccc1
Settings	mass density, [1] [kg/m3]	refractive index, [2]	viscosity, [1] [mPa·s]
303.15 K, x1 = 0.1478	862.2	1.4809	0.558
303.15 K, x1 = 0.2728	869.9	1.4691	0.527
303.15 K, x1 = 0.3884	871.2	1.4568	0.499
303.15 K, x1 = 0.4978	876.3	1.4431	0.473
303.15 K, x1 = 0.6	881.8	1.4286	0.45
303.15 K, x1 = 0.6925	886.6	1.4157	0.43
303.15 K, x1 = 0.7768	891	1.4058	0.413
303.15 K, x1 = 0.851	896.6	1.3938	0.397
303.15 K, x1 = 0.9309	903.7	1.3709	0.38
313.15 K, x1 = 0.1478	853.7	1.4791	0.502
313.15 K, x1 = 0.2728	857.7	1.4682	0.476
313.15 K, x1 = 0.3884	861.8	1.4532	0.452
313.15 K, x1 = 0.4978	866.3	1.4415	0.42
313.15 K, x1 = 0.6	873.2	1.4269	0.409
313.15 K, x1 = 0.6925	875.9	1.4142	0.391
313.15 K, x1 = 0.7768	880	1.4042	0.376
313.15 K, x1 = 0.851	885.1	1.3921	0.363
313.15 K, x1 = 0.9309	891.7	1.3695	0.351

CCOC=O [ethyl methanoate] + Cc1cccc(C)c1
Settings	mass density, [1] [kg/m3]	refractive index, [2]	viscosity, [1] [mPa·s]
303.15 K, x1 = 0.1348	858.3	1.4892	0.524
303.15 K, x1 = 0.2728	863.3	1.4695	0.494
303.15 K, x1 = 0.3968	868.7	1.4561	0.467
303.15 K, x1 = 0.4988	873.1	1.4391	0.449
303.15 K, x1 = 0.6032	877.7	1.4288	0.43
303.15 K, x1 = 0.6923	882.8	1.4265	0.414
303.15 K, x1 = 0.7867	888.4	1.4055	0.398
303.15 K, x1 = 0.8591	895	1.3875	0.386
303.15 K, x1 = 0.9379	900.1	1.3856	0.373
313.15 K, x1 = 0.1348	849.8	1.482	0.479
313.15 K, x1 = 0.2728	854.4	1.4679	0.453
313.15 K, x1 = 0.3968	859.5	1.4578	0.431
313.15 K, x1 = 0.4988	864.3	1.438	0.412
313.15 K, x1 = 0.6032	869.2	1.4276	0.397
313.15 K, x1 = 0.6923	874.3	1.4253	0.384
313.15 K, x1 = 0.7867	880.1	1.4043	0.369
313.15 K, x1 = 0.8591	884.1	1.385	0.357
313.15 K, x1 = 0.9379	889.7	1.3841	0.347

Reference: the NIST ThermoML archive (doi:10.1021/je0400052)
